The values below come from patent US9650366B2, “Heterocycle-substituted pyridyl benzothiophenes as kinase inhibitors” (Allergan, Inc., priority 2014, dated 2017).

What all share (type): biochemical
One test deals with human GST-PKR (Homo sapiens (Human), UniProt P19525). Put plainly: PKR KinaseGlo Assay. The conditions noted are these: recombinant human GST-PKR, 6.6 uM ATP. The procedure:
Commercially available recombinant human GST-PKR (SignalChem, Canada; 1.5 uM-2 uM stock) is diluted to 500 nM in assay buffer (20 mM Tris-HCl, pH 7.2, 10 mM KCl, 10 mM MgCl2, 10% glycerol). Preactivated PKR is dispensed to 384/96-well black plates at 3.125/12.5 uls/well using the liquid handler Janus. Appropriate dilutions of inhibitors are added to 384/96-well plate followed by 6.6 uM ATP (final) and incubated for 10 minutes at room temperature. The remaining ATP/well is determined by adding 6.25/25 uls/well Kinase-Glo assay mix (Promega) and luminescence is measured on EnVision luminescence plate reader (integration time, 0.2 sec; Perkin-Elmer, Massachusetts, USA). The % inhibition for the compounds is calculated using ATP only (100% inhibition) and PKR+ATP (0% inhibition). IC50 values are determined by plotting % activity versus inhibitor concentration. Curves are fitted using Activity base XLfit (IDBS, UK) using the formula—
4 Parameter Logistic Model
fit=(A+((B−A)/(1+(10^((C−x)*D))))) inv=(C−(log(((B−A)/(y−A))−1)/D)) res=(y−fit)

The target of a further test is VEGFR2 (KDR) (Homo sapiens (Human), UniProt P35968). Put plainly: VEGFR2 Kinase Assay. The conditions noted are these: purified cytoplasmic domain KDR protein, 2.7 μM ATP. The procedure:
Biochemical KDR kinase assays were performed in 96 well microtiter plates that were coated overnight with 75 μg/well of poly-Glu-Tyr (4:1) in 10 mM Phosphate Buffered Saline (PBS), pH 7.4. The coated plates were washed with 2 mls per well PBS+0.05% Tween-20 (PBS-T), blocked by incubation with PBS containing 1% BSA, then washed with 2 mls per well PBS-T prior to starting the reaction. Reactions were carried out in 100 μL reaction volumes containing 2.7 μM ATP in kinase buffer (50 mM Hepes buffer pH 7.4, 20 mM MgCl2, 0.1 mM MnCl2 and 0.2 mM Na3VO4). Test compounds were reconstituted in 100% DMSO and added to the reaction to give a final DMSO concentration of 5%. Reactions were initiated by the addition 20 ul per well of kinase buffer containing 200-300 ng purified cytoplasmic domain KDR protein (BPS Bioscience, San Diego, Calif.). Following a 15 minute incubation at 30° C., the reactions were washed 2 mls per well PBS-T. 100 μl of a monoclonal anti-phosphotyrosine antibody-peroxidase conjugate diluted 1:10,000 in PBS-T was added to the wells for 30 minutes. Following a 2 mls per well wash with PBS-Tween-20, 100 μl of 0-Phenylenediamine Dihydrochloride in phosphate-citrate buffer, containing urea hydrogen peroxide, was added to the wells for 7-10 minutes as a colorimetric substrate for the peroxidase. The reaction was terminated by the addition of 100 μl of 2.5N H2SO4 to each well and read using a microplate ELISA reader set at 492 nm. IC50 values for compound inhibition were calculated directly from graphs of optical density (arbitrary units) versus compound concentration following subtraction of blank values.

The next test has as its target PDGFRβ (Homo sapiens (Human), UniProt P09619). Put plainly: PDGFRβ Kinase Assay. As to conditions: purified cytoplasmic domain PDGFR-b protein, 36 μM ATP. On the procedure: Biochemical PDGFRβ kinase assays were performed in 96 well microtiter plates that were coated overnight with 75 μg of poly-Glu-Tyr (4:1) in 10 mM Phosphate Buffered Saline (PBS), pH 7.4. The coated plates were washed with 2 mls per well PBS+0.05% Tween-20 (PBS-T), blocked by incubation with PBS containing 1% BSA, then washed with 2 mls per well PBS-T prior to starting the reaction. Reactions were carried out in 100 μL reaction volumes containing 36 μM ATP in kinase buffer (50 mM Hepes buffer pH 7.4, 20 mM MgCl2, 0.1 mM MnCl2 and 0.2 mM Na3VO4). Test compounds were reconstituted in 100% DMSO and added to the reaction to give a final DMSO concentration of 5%. Reactions were initiated by the addition 20 ul per well of kinase buffer containing 200-300 ng purified cytoplasmic domain PDGFR-b protein (Millipore). Following a 60 minute incubation at 30° C., the reactions were washed 2 mls per well PBS-T. 100 μl of a monoclonal anti-phosphotyrosine antibody-peroxidase conjugate diluted 1:10,000 in PBS-T was added to the wells for 30 minutes. […] The reaction was terminated by the addition of 100 μl of 2.5N H2SO4 to each well and read using a microplate ELISA reader set at 492 nm. IC50 values for compound inhibition were calculated directly from graphs of optical density (arbitrary units) versus compound concentration following subtraction of blank values.

Chain of VEGFR2 (KDR) (P35968 786-1356): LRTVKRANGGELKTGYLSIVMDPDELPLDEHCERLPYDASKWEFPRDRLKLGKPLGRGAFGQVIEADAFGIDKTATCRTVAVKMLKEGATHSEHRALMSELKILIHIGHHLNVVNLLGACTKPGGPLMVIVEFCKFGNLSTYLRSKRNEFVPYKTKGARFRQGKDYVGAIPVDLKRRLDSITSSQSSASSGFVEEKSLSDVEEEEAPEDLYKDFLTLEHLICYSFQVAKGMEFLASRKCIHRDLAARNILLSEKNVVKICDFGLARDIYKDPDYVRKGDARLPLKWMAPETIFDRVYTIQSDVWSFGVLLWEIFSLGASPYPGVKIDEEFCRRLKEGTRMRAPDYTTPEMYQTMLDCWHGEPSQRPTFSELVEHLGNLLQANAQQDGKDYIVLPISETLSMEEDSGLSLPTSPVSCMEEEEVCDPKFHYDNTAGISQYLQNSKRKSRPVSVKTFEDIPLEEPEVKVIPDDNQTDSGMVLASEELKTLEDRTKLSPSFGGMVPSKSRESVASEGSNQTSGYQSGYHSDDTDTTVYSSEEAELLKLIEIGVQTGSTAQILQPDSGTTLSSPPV
Chain of human GST-PKR (P19525 whole entry): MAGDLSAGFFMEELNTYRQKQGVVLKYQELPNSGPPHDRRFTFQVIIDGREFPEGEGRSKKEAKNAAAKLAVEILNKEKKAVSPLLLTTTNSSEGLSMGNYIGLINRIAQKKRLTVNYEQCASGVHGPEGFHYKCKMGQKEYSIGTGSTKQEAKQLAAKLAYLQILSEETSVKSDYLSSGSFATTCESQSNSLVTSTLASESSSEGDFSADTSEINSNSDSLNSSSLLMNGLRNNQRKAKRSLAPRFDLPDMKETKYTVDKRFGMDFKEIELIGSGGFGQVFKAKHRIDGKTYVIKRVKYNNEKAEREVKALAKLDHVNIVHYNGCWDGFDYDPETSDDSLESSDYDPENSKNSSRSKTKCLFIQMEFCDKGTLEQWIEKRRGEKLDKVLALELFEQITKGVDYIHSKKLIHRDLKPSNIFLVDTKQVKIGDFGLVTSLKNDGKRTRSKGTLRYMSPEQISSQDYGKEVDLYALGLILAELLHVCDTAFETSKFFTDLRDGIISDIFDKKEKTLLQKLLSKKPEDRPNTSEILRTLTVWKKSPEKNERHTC
Chain of PDGFRβ (P09619 554-1106): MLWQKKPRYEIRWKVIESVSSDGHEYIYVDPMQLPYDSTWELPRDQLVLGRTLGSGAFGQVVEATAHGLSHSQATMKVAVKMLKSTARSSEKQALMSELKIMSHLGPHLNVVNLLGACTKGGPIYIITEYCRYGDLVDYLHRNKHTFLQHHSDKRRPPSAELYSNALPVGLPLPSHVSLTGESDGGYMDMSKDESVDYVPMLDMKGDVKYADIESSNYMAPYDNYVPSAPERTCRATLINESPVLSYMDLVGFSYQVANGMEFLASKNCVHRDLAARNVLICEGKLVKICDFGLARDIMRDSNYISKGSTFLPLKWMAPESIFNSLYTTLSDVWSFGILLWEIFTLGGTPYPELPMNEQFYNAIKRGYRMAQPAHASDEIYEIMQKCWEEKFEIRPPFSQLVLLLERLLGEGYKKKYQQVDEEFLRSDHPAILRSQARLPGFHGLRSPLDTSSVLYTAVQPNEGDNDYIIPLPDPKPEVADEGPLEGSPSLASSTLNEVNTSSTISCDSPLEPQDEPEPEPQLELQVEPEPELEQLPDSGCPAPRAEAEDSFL

Broadly, the IC50 is the point on the concentration scale where inhibition reaches its midpoint. As for `O=C(Nc1ccc(Cl)c(C(F)(F)F)c1)Nc1ccc2sc(-c3cncc(-c4nn[nH]n4)c3)cc2c1` [Example 1, 1-[4-chloro-3-(trifluoromethyl)phenyl]-3-{2-[5-(2H-tetrazol-5-yl)pyridin-3-yl]-1-benzothien-5-yl}urea], the 50% inhibitory concentration (IC50) on human GST-PKR turned out to be 727 nM.

In the case of `Nc1ncc(-c2nn[nH]n2)cc1-c1cc2cc(NC(=O)Nc3ccc(Cl)c(C(F)(F)F)c3)ccc2s1` [Example 2, 1-{2-[2-amino-5-(2H-tetrazol-5-yl)pyridin-3-yl]-1-benzothien-5-yl}-3-[4-chloro-3-(trifluoromethyl)phenyl]urea], the IC50 on human GST-PKR worked out at 140 nM.

On to `Nc1ncc(-c2nnn(CCCO)n2)cc1-c1cc2cc(NC(=O)Nc3ccc(Cl)c(C(F)(F)F)c3)ccc2s1` [Example 3, 1-(2-{2-amino-5-[2-(3-hydroxypropyl)-2H-tetrazol-5-yl]pyridin-3-yl}-1-benzothien-5-yl)-3-[4-chloro-3-(trifluoromethyl)phenyl]urea], for which the IC50 on human GST-PKR stood at 39 nM.

As to `Nc1ncc(-c2nnn(CCCO)n2)cc1-c1cc2cc(NC(=O)Nc3ccc(F)c(C(F)(F)F)c3)ccc2s1` [Example 4, 1-(2-{2-amino-5-[2-(3-hydroxypropyl)-2H-tetrazol-5-yl]pyridin-3-yl}-1-benzothien-5-yl)-3-[4-fluoro-3-(trifluoromethyl)phenyl]urea], the IC50 at human GST-PKR is 99 nM.

Consider `Nc1ncc(-c2nnn(CCCO)n2)cc1-c1cc2cc(NC(=O)Nc3cc(F)cc(C(F)(F)F)c3)ccc2s1` [Example 5, 1-(2-{2-amino-5-[2-(3-hydroxypropyl)-2H-tetrazol-5-yl]pyridin-3-yl}-1-benzothien-5-yl)-3-[3-fluoro-5-(trifluoromethyl)phenyl]urea], for which the IC50 at human GST-PKR was found to be 76 nM.

As to `Nc1ncc(-c2nnn(CCCO)n2)cc1-c1cc2cc(NC(=O)Nc3cc(C(F)(F)F)cc(C(F)(F)F)c3)ccc2s1` [Example 6, 1-(2-{2-amino-5-[2-(3-hydroxypropyl)-2H-tetrazol-5-yl]pyridin-3-yl}-1-benzothien-5-yl)-3-[3,5-bis(trifluoromethyl)phenyl]urea], the IC50 at human GST-PKR is 66 nM.

In the case of `Nc1ncc(-c2nnn(CCO)n2)cc1-c1cc2cc(NC(=O)Nc3ccc(Cl)c(C(F)(F)F)c3)ccc2s1` [Example 8, 1-(2-{2-amino-5-[2-(2-hydroxyethyl)-2H-tetrazol-5-yl]pyridin-3-yl}-1-benzothien-5-yl)-3-[4-chloro-3-(trifluoromethyl)phenyl]urea], the IC50 on human GST-PKR was found to be 82 nM.

For the compound `Cc1ccoc1C(=O)Nc1cccc(C#Cc2cncc(-c3nnn(CCCO)n3)c2)c1` [Example 9, N-[3-({5-[2-(3-hydroxypropyl)-2H-tetrazol-5-yl]pyridin-3-yl}ethynyl)phenyl]-3-methyl-2-furamide], the figures for the half-maximal inhibitory concentration (IC50) against VEGFR2 (KDR), against PDGFRβ and at human GST-PKR were 5 nM, 21 nM and above 10000 nM, respectively.

As for `Cc1cccc(C(=O)Nc2cccc(C#Cc3cncc(-c4nnn(CCCO)n4)c3)c2)c1` [Example 10, N-[3-({5-[2-(3-hydroxypropyl)-2H-tetrazol-5-yl]pyridin-3-yl}ethynyl)phenyl]-3-methylbenzamide], half-maximal inhibition against VEGFR2 (KDR) (IC50) required 7 nM.

As to `Nc1ncc(-c2nnn(CCCO)n2)cc1C#Cc1cccc(NC(=O)Nc2ccc(Cl)c(C(F)(F)F)c2)c1` [Example 11, 1-[3-({2-amino-5-[2-(3-hydroxypropyl)-2H-tetrazol-5-yl]pyridin-3-yl}ethynyl)phenyl]-3-[4-chloro-3-(trifluoromethyl)phenyl]urea], the 50% inhibitory concentration (IC50) on human GST-PKR was determined as 158 nM.

Consider `O=C(Nc1ccc(C#Cc2cncc(-c3nnn(CCCO)n3)c2)cc1)Nc1cc(C(F)(F)F)ccc1F` [Example 12, 1-[2-fluoro-5-(trifluoromethyl)phenyl]-3-[4-({5-[2-(3-hydroxypropyl)-2H-tetrazol-5-yl]pyridin-3-yl}ethynyl)phenyl]urea], for which the IC50 at VEGFR2 (KDR) was 8 nM; on human GST-PKR, above 10000 nM.

Take `Nc1ncc(-c2ncccn2)cc1-c1cc2cc(NC(=O)Nc3ccc(Cl)c(C(F)(F)F)c3)ccc2s1` [Example 13, 1-[2-(2-amino-5-pyrimidin-2-ylpyridin-3-yl)-1-benzothien-5-yl]-3-[4-chloro-3-(trifluoromethyl)phenyl]urea]: the half-maximal inhibitory concentration (IC50) on human GST-PKR was determined as 558 nM.

For the compound `Nc1ncc(-c2cnccn2)cc1-c1cc2cc(NC(=O)Nc3ccc(Cl)c(C(F)(F)F)c3)ccc2s1` [Example 14, 1-[2-(2-amino-5-pyrazin-2-ylpyridin-3-yl)-1-benzothien-5-yl]-3-[4-chloro-3-(trifluoromethyl)phenyl]urea], the IC50 on human GST-PKR turned out to be 301 nM.
